Test results as given in patent US9326513B2, “Fungicidal compositions” (Syngenta Participations AG, priority 2011, dated 2016).

Tests used:
Assay type in all cases: in vivo
Details in all cases: foliar, compared to untreated control leaf disks, read-out: disease control
[1] = test system: Blumeria graminis f. sp. tritici (Erysiphe graminis f. sp. tritici); experiment: Blumeria graminis f. sp. tritici / wheat / leaf disc preventative (powdery mildew on wheat)
Method: Blumeria graminis f. sp. tritici (Erysiphe graminis f. sp. tritici)/Wheat/Leaf Disc Preventative (Powdery Mildew on Wheat)
Wheat leaf segments cv. Kanzler were placed on agar in a multiwell plate (24-well format) and sprayed with the formulated test compound diluted in water. The leaf disks were inoculated by shaking powdery mildew infected plants above the test plates 1 day after application. The inoculated leaf disks were incubated at 20° C. and 60% rh under a light regime of 24 h darkness followed by 12 h light/12 h darkness in a climate chamber and the activity of a compound was assessed as percent disease control compared to untreated when an appropriate level of disease damage appears on untreated check leaf segments (6-8 days after application).
The following compounds gave at 200 ppm give at least 50% disease control in this test when compared to untreated control leaf disks under the same conditions, which show extensive disease development: […]

[2] = test system: Puccinia recondita f. sp. tritici; experiment: Puccinia recondita f. sp. tritici / wheat / leaf disc preventative (brown rust)
Excerpt: Puccinia recondita f. sp. tritici/Wheat/Leaf Disc Preventative (Brown Rust) Wheat leaf segments cv. Kanzler were placed on agar in multiwell plates (24-well format) and sprayed with the formulated test compound diluted in water. The leaf disks were inoculated with a spore suspension of the fungus 1 day after application.

[3] = test system: Puccinia recondita f. sp. tritici; experiment: Puccinia recondita f. sp. tritici / wheat / leaf disc curative (brown rust)
Method: Puccinia recondita f. sp. tritici/Wheat/Leaf Disc Curative (Brown Rust) Wheat leaf segments cv. Kanzler are placed on agar in multiwell plates (24-well format). The leaf segments are inoculated with a spore suspension of the fungus. Plates were stored in darkness at 19° C. and 75% rh. The formulated test compound diluted in water was applied 1 day after inoculation.

Row | SMILES | pest or weed control at 200 ppm [1] | pest or weed control at 200 ppm [2] | pest or weed control at 200 ppm [3]
1 | CCN(C)/C=N/c1cc(Br)c(OC2C(C)CCCC2C)nc1C (centres unmarked) [Q.094] | ≥ 50% | ≥ 50% | ≥ 50%
2 | CCN(C)/C=N/c1cc(Br)c(OC2CCCC3CCCCC32)nc1C (centres unmarked) [Q.049] | ≥ 50% | ≥ 50% | ≥ 50%
3 | CCN(C)/C=N/c1cc(Br)c(OCc2ccc(Cl)cc2Cl)nc1C [Q.096] | – | ≥ 50% | ≥ 50%
4 | CCN(C)/C=N/c1cc(Br)c(OCc2ccc(Cl)c(Cl)c2)nc1C [Q.064] | ≥ 50% | ≥ 50% | ≥ 50%
5 | C#CC(C)Oc1nc(C)c(/N=C/N(C)CC)cc1Br (centres unmarked) [Q.080] | ≥ 50% | ≥ 50% | ≥ 50%
6 | CCN(C)/C=N/c1ccc(OCCc2ccccc2C)nc1C [Q.350] | ≥ 50% | ≥ 50% | ≥ 50%
7 | CCN(C)/C=N/c1cc(Br)c(OC(C)c2ccc3c(c2)CCC3)nc1C (centres unmarked) [Q.239] | ≥ 50% | ≥ 50% | ≥ 50%
8 | CCN(/C=N/c1cc(Br)c(OC(C)c2cc(F)cc(F)c2)nc1C)CC (centres unmarked) [Q.187] | ≥ 50% | ≥ 50% | –
9 | CCN(C)/C=N/c1cc(Br)c(OCC[Si](C)(C)C)nc1C [Q.271] | ≥ 50% | ≥ 50% | ≥ 50%
10 | C=CCN(C)/C=N/c1cc(Br)c(OC(C)c2cc(F)cc(F)c2)nc1C (centres unmarked) [Q.192] | ≥ 50% | ≥ 50% | ≥ 50%
11 | CCN(C)/C=N/c1cc(Br)c(O[C@@H]2C[C@@H]3ON=C(C)[C@@H]3C2)nc1C [Q.068] | ≥ 50% | ≥ 50% | ≥ 50%
12 | CCN(C)/C=N/c1cc(Br)c(OC2C=CCCC2)nc1C (centres unmarked) [Q.172] | ≥ 50% | ≥ 50% | ≥ 50%
13 | Cc1nc(OCCCC(C)C)c(Br)cc1/N=C/NC(C)C [Q.008] | – | ≥ 50% | –
14 | CCN(C)/C=N/c1cc(Br)c(OC2Cc3ccc(-c4ccccc4)cc3C2)nc1C (centres unmarked) [Q.142] | ≥ 50% | ≥ 50% | –
15 | CCN(C)/C=N/c1cc(Br)c(OC(C)CCc2ccccc2)nc1C (centres unmarked) [Q.147] | ≥ 50% | ≥ 50% | ≥ 50%
16 | CCN(C)/C=N/c1cc(Br)c(OCc2snc(-c3ccccc3)c2C#N)nc1C [Q.210] | – | ≥ 50% | –
17 | Cc1cc(C)cc(COc2ccc(/N=C/N(C)C(C)C)c(C)n2)c1 [Q.297] | ≥ 50% | ≥ 50% | ≥ 50%
18 | C=CCN1CCC(Oc2nc(C)c(/N=C/N(C)CC)cc2Br)CC1 [Q.165] | ≥ 50% | ≥ 50% | ≥ 50%
19 | CCN(C)/C=N/c1cc(Br)c(OCCCC(O)COC)nc1C (centres unmarked) [Q.036] | ≥ 50% | ≥ 50% | ≥ 50%
20 | CCc1ccccc1C(C)Oc1nc(C)c(/N=C/N(C)CC)cc1Br (centres unmarked) [Q.283] | ≥ 50% | ≥ 50% | ≥ 50%
21 | CCN(C)/C=N/c1cc(Br)c(OC2Cc3cc(Br)c(Br)cc3C2)nc1C [Q.030] | ≥ 50% | ≥ 50% | ≥ 50%

Row | SMILES | pest or weed control at 200 ppm [1] | pest or weed control at 200 ppm [2] | pest or weed control at 200 ppm [3]
22 | CCN(C)/C=N/c1cc(Br)c(OCc2cc(-c3ccc(F)cc3)ns2)nc1C [Q.123] | ≥ 50% | ≥ 50% | ≥ 50%
23 | CCN(C)/C=N/c1cc(Br)c(OC2CCCC(C)C2)nc1C (centres unmarked) [Q.149] | ≥ 50% | ≥ 50% | ≥ 50%
24 | CCN(C)/C=N/c1cc(Br)c(OC2C=CC(=O)CC2)nc1C (centres unmarked) [Q.281] | ≥ 50% | ≥ 50% | ≥ 50%
25 | CCN(C)/C=N/c1cc([Si](C)(C)C)c(OCc2ccccc2C)nc1C [Q.257] | – | ≥ 50% | ≥ 50%
26 | Cc1nc(OCCCC(C)C)c(Br)cc1/N=C/NC(C)(C)C [Q.009] | – | ≥ 50% | –
27 | CCN(C)/C=N/c1cc(Br)c(OCc2cc(-c3ccccc3)ns2)nc1C [Q.107] | – | ≥ 50% | –
28 | CCCC(CCC)Oc1nc(C)c(/N=C/N(C)CC)cc1Br [Q.150] | – | ≥ 50% | –
29 | CCN(C)/C=N/c1cc(-c2ccc(F)cc2)c(OC(C)c2cc(F)cc(F)c2)nc1C (centres unmarked) [Q.264] | – | ≥ 50% | –
30 | CCC[Si](CCC)(CCC)c1cc(/N=C/N(C)CC)c(C)nc1OCc1ccccc1C [Q.259] | – | ≥ 50% | –
31 | Cc1cc(C)cc(CC(C)Oc2ccc(/N=C/N(C)C(C)C)c(C)n2)c1 (centres unmarked) [Q.362] | – | ≥ 50% | ≥ 50%
32 | CCC(Oc1ccc(/N=C/N(C)C(C)C)c(C)n1)c1ccccc1 (centres unmarked) [Q.348] | – | ≥ 50% | ≥ 50%
33 | CCN(C)/C=N/c1cc(Br)c(OC(C)c2cccc(C#Cc3ccccc3)c2)nc1C (centres unmarked) [Q.312] | ≥ 50% | ≥ 50% | –
34 | C#CCN(C)/C=N/c1cc(Br)c(OC(C)c2cc(F)cc(F)c2)nc1C (centres unmarked) [Q.189] | – | ≥ 50% | –
35 | CCN(C)/C=N/c1cc(Br)c(OC(C)C[Si](C)(C)C)nc1C (centres unmarked) [Q.272] | ≥ 50% | ≥ 50% | –
36 | CCN(C)/C=N/c1cc([Si](CC)(CC)CC)c(OCc2ccccc2C)nc1C [Q.258] | – | ≥ 50% | ≥ 50%
37 | Cc1nc(OC(C)c2cc(F)cc(F)c2)c(Br)cc1/N=C/N1CC=CC1 (centres unmarked) [Q.194] | – | ≥ 50% | ≥ 50%
38 | CCN(C)/C=N/c1cc(Br)c(OC(C)c2ccccc2C#Cc2ccccc2)nc1C (centres unmarked) [Q.313] | – | ≥ 50% | –
39 | CCN(C)/C=N/c1cc(Br)c(OCCCC2CCCCC2)nc1C [Q.017] | ≥ 50% | ≥ 50% | –
40 | CCN(C)/C=N/c1cc(Br)c(OCc2snc(-c3ccccc3)c2Br)nc1C [Q.108] | ≥ 50% | ≥ 50% | –
41 | CCN(C)/C=N/c1cc(Br)c(O)nc1C [Q.379] | – | ≥ 50% | –
42 | CCCc1ccc(-c2cc(/N=C/N(C)CC)c(C)nc2OC(C)c2cc(F)cc(F)c2)cc1 (centres unmarked) [Q.267] | ≥ 50% | ≥ 50% | –

Row | SMILES | pest or weed control at 200 ppm [1] | pest or weed control at 200 ppm [2] | pest or weed control at 200 ppm [3]
43 | CCN(C)/C=N/c1ccc(OCc2cc(OC)cc(OC)c2)nc1C [Q.372] | – | ≥ 50% | ≥ 50%
44 | CC#Cc1cc(/N=C/N(C)CC)c(C)nc1OC1CCC(C(C)C)CC1 (centres unmarked) [Q.254] | – | ≥ 50% | ≥ 50%
45 | CCN(C)/C=N/c1ccc(O[C@H]2CC[C@H](C(C)C)CC2)nc1C [Q.182] | – | ≥ 50% | ≥ 50%
46 | CCN(C)/C=N/c1cc(Br)c(OCCO)nc1C [Q.056] | – | ≥ 50% | –
47 | CCN(C)/C=N/c1cc(Br)c(OC(C)c2ccccc2CCc2ccccc2)nc1C (centres unmarked) [Q.314] | – | ≥ 50% | –
48 | CCN(C)/C=N/c1cc(Br)c(OC(CC(C)C)CC(C)C)nc1C [Q.234] | – | ≥ 50% | –
49 | CCN(C)/C=N/c1cc(Br)c(OC(C)(C)c2ccccc2)nc1C [Q.279] | – | ≥ 50% | ≥ 50%
50 | CCN(C)/C=N/c1cc(Br)c(OC)nc1C [Q.387] | – | ≥ 50% | –
51 | C#CC(C)N(C)/C=N/c1cc(Br)c(OC(C)c2cc(F)cc(F)c2)nc1C (centres unmarked) [Q.190] | – | ≥ 50% | –
52 | CCN(C)/C=N/c1cc(Br)c(O[C@H]2CC[C@H](C(C)C)CC2)nc1C [Q.268] | – | ≥ 50% | –
53 | CCN(C)/C=N/c1cc(Br)c(OCc2snc(-c3ccc(F)cc3)c2C#N)nc1C [Q.157] | – | ≥ 50% | –
54 | CCN(C)/C=N/c1cc(-c2cccnc2)c(OC(C)c2cc(F)cc(F)c2)nc1C (centres unmarked) [Q.266] | – | ≥ 50% | –
55 | CCN(C)/C=N/c1cc(Br)c(OC2CC(C)CCC2C(C)C)nc1C (centres unmarked) [Q.083] | – | ≥ 50% | –
56 | CN/C=N/c1cc(Br)c(OCCCC(C)C)nc1C [Q.003] | – | ≥ 50% | –
57 | CCN(C)/C=N/c1cc(Br)c(OCCOCOC)nc1C [Q.061] | – | ≥ 50% | –
58 | CCN(C)/C=N/c1cc(Br)c(OC2CCCc3ccccc32)nc1C (centres unmarked) [Q.138] | – | ≥ 50% | –
59 | CCN(C)/C=N/c1cc(C(C)C)c(OC2CCC(C(C)C)CC2)nc1C (centres unmarked) [Q.343] | ≥ 50% | ≥ 50% | –
60 | CCN(C)/C=N/c1cc(Br)c(OC2C=C(C)CCC2)nc1C (centres unmarked) [Q.173] | – | ≥ 50% | –
61 | CCN(C)/C=N/c1cc(Br)c(OCc2cccc(N)c2)nc1C [Q.328] | – | ≥ 50% | –
62 | CCN(C)/C=N/c1cc(Br)c(OC2CCNCC2)nc1C [Q.159] | – | ≥ 50% | ≥ 50%
